Results on 15 compounds are retold here after patent publication US20060089378A1 (priority 2004, published 2006).

Where two headings read alike, the source gives them in different places.

Assay [1] deals with T1, Cannabinoid CB1 Receptor (Homo sapiens, UniProt P21554).
T1 construct: expressed in transfected cells
Kind of assay: Binding assay for CB1 agonists or inverse agonists (radioligand competition, membranes of transfected SK-N-MC cells). The settings on record: for inhibition at 0.2 µM: read-out: Cannabinoid CB1 Receptor Binding percent inhibition.

For assay [2], the target named is T2, Cannabinoid CB2 Receptor (Homo sapiens, UniProt P34972).
T2 construct: expressed in transfected cells
Kind of assay: Binding assay for CB2 agonists or inverse agonists (radioligand competition, membranes of transfected SK-N-MC cells). The conditions noted are these: for inhibition at 0.2 µM: read-out: Cannabinoid CB2 Receptor Binding percent inhibition. In general terms: Displacement assays read how much labelled ligand stays bound in the presence of the test substance.

Assay [3] deals with CB1 receptor (human) (Homo sapiens, UniProt P21554). In words: cell-based. The settings on record: for CB1 Receptor Functional Activity (change in functional activity, CRE β-gal): one compound concentration, β-galactosidase activity relative to vehicle treated cells.
Setting [4] is: test concentration of 0.2 μM, compounds without an IC50 binding value.
Where [5] appears, read: human CB1, SK-N-MC cell membranes, calculated by linear regression from percent inhibition at various concentrations, read-out: Cannabinoid CB1 Receptor Binding IC50.

In general, IC50 refers to the concentration at which inhibition is half-maximal. The inhibition is the share of the control response that was lost under treatment. A word on the EC50: it is the concentration needed to bring the measured effect to its halfway point.

T2 sequence (P34972 whole entry): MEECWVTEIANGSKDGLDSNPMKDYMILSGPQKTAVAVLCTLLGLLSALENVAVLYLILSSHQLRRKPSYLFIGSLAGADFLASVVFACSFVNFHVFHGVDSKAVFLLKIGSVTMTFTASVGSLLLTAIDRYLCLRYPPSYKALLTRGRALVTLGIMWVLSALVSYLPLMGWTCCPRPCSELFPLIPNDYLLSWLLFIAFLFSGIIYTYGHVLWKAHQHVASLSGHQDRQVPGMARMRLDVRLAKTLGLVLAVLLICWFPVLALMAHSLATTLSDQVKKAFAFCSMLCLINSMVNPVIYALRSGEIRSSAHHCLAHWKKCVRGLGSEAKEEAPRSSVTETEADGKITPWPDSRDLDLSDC
Chain of CB1 receptor (human) (P21554 whole entry): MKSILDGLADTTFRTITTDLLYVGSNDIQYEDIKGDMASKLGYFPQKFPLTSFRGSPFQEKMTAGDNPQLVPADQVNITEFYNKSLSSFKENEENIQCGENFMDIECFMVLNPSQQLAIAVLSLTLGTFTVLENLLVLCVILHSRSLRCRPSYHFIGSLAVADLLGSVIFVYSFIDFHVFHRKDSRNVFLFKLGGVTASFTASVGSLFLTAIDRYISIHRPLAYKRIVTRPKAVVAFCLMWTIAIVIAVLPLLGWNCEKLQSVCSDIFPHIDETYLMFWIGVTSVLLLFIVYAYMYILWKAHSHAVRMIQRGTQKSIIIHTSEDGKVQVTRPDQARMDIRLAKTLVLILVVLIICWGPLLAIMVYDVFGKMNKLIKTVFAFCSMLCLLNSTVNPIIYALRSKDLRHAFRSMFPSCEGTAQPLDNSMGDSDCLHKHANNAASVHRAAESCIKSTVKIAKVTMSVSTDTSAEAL
T1 sequence (P21554 whole entry): as above

The compound `COC(=O)N1C/C(=C\c2ccc(F)cc2)c2c(c(C(=O)N[C@H](C)C3CCCCC3)nn2-c2ccc(Cl)cc2Cl)C1` [Cpd 13, (7E)-3-[(1R)-1-cyclohexyl-ethylcarbamoyl]-1-(2,4-dichloro-phenyl)-7-(4-fluoro-benzylidene)-1,4,6,7-tetrahydro-pyrazolo[4,3-c]pyridine-5-carboxylic acid methyl ester] came in with an IC50 in assay [1] of 2 nM. In addition, the inhibition at 0.2 µM in assay [2] (setting [4]) turned out to be 11%. This compound returned a half-maximal effective concentration (EC50) in assay [3] of 10 nM.
Regarding `COc1ccc(/C=C2\CN(C=O)Cc3c(C(=O)N[C@H](C)c4ccccc4)nn(-c4ccc(Cl)cc4Cl)c32)cc1` [Cpd 45, (7E)-1-(2,4-dichloro-phenyl)-5-formyl-7-(4-methoxy-benzylidene)-4,5,6,7-tetrahydro-1H-pyrazolo[4,3-c]pyridine-3-carboxylic acid [(1R)-1-phenyl-ethyl]-amide], the IC50 in assay [1] came out at 3 nM. Besides, the inhibition at 0.2 µM in assay [2] was found to be 45%. This compound also came in with an EC50 in assay [3] of 0.1 nM.
In the case of `COC(=O)N1CCc2c(c(C(=O)NC3C4(C)CCC(C4)C3(C)C)nn2-c2ccccc2)C1` (stereo not drawn) [Cpd 115, 1-phenyl-3-(1,3,3-trimethyl-bicyclo[2.2.1]hept-2-ylcarbamoyl)-1,4,6,7-tetrahydro-pyrazolo[4,3-c]pyridine-5-carboxylic acid methyl ester], the IC50 in assay [1] amounted to 2700 nM; in assay [2] it was 90 nM. Further, the “CB1 Receptor Functional Activity (change in functional activity, CRE β-gal)” value in assay [3] is on record as 81%.
The compound `CCNC(=O)N1C/C(=C\c2ccc(OC)cc2)c2c(c(C(=O)NC(C)c3ccccn3)nn2-c2ccc(Cl)cc2Cl)C1` (stereo not drawn) [Cpd 61, (7E)-1-(2,4-dichloro-phenyl)-7-(4-methoxy-benzylidene)-1,4,6,7-tetrahydro-pyrazolo[4,3-c]pyridine-3,5-dicarboxylic acid 5-ethylamide 3-[(1-pyridin-2-yl-ethyl)-amide]] returned an IC50 in assay [1] of 20 nM. Moreover, the inhibition at 0.2 µM in assay [2] was determined as 7%. The same compound registered an EC50 in assay [3] of 5 nM.
Consider “(7E)-1-(4-chloro-phenyl)-5-methanesulfonyl-7-(4-methoxy-benzylidene)-4,5,6,7-tetrahydro-1H-pyrazolo[4,3-c]pyridine-3-carboxylic acid (1-pyridin-2-yl-ethyl)-amide [Cpd 78]”, for which, in assay [1] (setting [5]), the concentration for half-maximal inhibition (IC50) was 7 nM. In addition, the “Cannabinoid CB2 Receptor Binding percent inhibition” value in assay [2] (setting [4]) turned out to be 17%. Further, in assay [3] (SK-N-MC cells expressing CRE β-gal and human CB1, forskolin, β-galactosidase activity, varying compound concentrations, read-out: CB1 Receptor Functional Inverse Agonist EC50), the concentration giving a half-maximal response (EC50) came to 3 nM.
As to `CCNC(=O)N1C/C(=C\c2ccc(OC)cc2)c2c(c(C(=O)N[C@H](C)c3ccccc3)nn2-c2ccc(Cl)cc2Cl)C1` [Cpd 41, (7E)-1-(2,4-dichloro-phenyl)-7-(4-methoxy-benzylidene)-1,4,6,7-tetrahydro-pyrazolo[4,3-c]pyridine-3,5-dicarboxylic acid 5-ethylamide 3-{[(1R)-1-phenyl-ethyl]-amide}], the IC50 in assay [1] is 9 nM. The inhibition at 0.2 µM in assay [2] worked out at 27%. This compound also registered an EC50 in assay [3] of 0.2 nM.
In the same order, the values of `COC(=O)N1C/C(=C\c2ccc(F)cc2)c2c(c(C(=O)NN3CC4CCCC4C3)nn2-c2ccc(Cl)cc2Cl)C1` (stereo not drawn) [Cpd 92, (7E)-1-(2,4-dichloro-phenyl)-7-(4-fluoro-benzylidene)-3-(hexahydro-cyclopenta[c]pyrrol-2-ylcarbamoyl)-1,4,6,7-tetrahydro-pyrazolo[4,3-c]pyridinc-5-carboxylic acid methyl ester] are 20 nM, 4% and 2 nM.
On to `CC(=O)N1C/C(=C\c2ccc(F)cc2)c2c(c(C(=O)N(C(C)=O)N3CCCCC3)nn2-c2ccc(Cl)cc2Cl)C1` [Cpd 134, (7E)-5-acetyl-1-(2,4-dichloro-phenyl)-7-(4-fluoro-benzylidene)-4,5,6,7-tetrahydro-1H-pyrazolo[4,3-c]pyridine-3-carboxylic acid acetyl-piperidin-1-yl-amide], for which the inhibition at 0.2 µM in assay [1] is 50%; in assay [2], 26%. In assay [3], this compound yielded a concentration for a half-maximal effect (EC50) of 20 nM.
As to `C[C@@H](NC(=O)c1nn(-c2ccc(Cl)cc2Cl)c2c1CN(S(C)(=O)=O)C/C2=C\c1ccc(F)cc1)c1ccccn1` [Cpd 140, (7E)-1-(2,4-dichloro-phenyl)-7-(4-fluoro-benzylidene)-5-methanesulfonyl-4,5,6,7-tetrahydro-1H-pyrazolo[4,3-c]pyridine-3-carboxylic acid [(1R)-1-pyridin-2-yl-ethyl]-amide], the inhibition at 0.2 µM in assay [1] was 96%; in assay [2], 9%. In assay [3], this compound yielded a concentration giving a half-maximal response (EC50) of 2 nM.
In the case of `CC(C)(C)OC(=O)N1CCc2c(c(C(=O)NC3C4(C)CCC(C4)C3(C)C)nn2-c2ccccc2)C1` (stereo not drawn) [Cpd 111, 1-phenyl-3-(1,3,3-trimethyl-bicyclo[2.2.1]hept-2-ylcarbamoyl)-1,4,6,7-tetrahydro-pyrazolo[4,3-c]pyridine-5-carboxylic acid tert-butyl ester], the inhibition at 0.2 µM in assay [1] turned out to be 27%. This compound also yielded a half-maximal inhibitory concentration (IC50) in assay [2] of 100 nM. The “CB1 Receptor Functional Activity (change in functional activity, CRE β-gal)” value in assay [3] turned out to be 24%.
The compound `CC(=O)N1C/C(=C\c2ccc(F)cc2)c2c(c(C(=O)N[C@@H](C)C3CCCCC3)nn2-c2ccc(Cl)cc2Cl)C1` [Cpd 6, (7E)-5-acetyl-1-(2,4-dichloro-phenyl)-7-(4-fluoro-benzylidene)-4,5,6,7-tetrahydro-1H-pyrazolo[4,3-c]pyridine-3-carboxylic acid [(1S)-1-cyclohexyl-ethyl]-amide] gave a half-inhibitory concentration (IC50) in assay [1] of 100 nM. For the same compound, in assay [2], the inhibition at 0.2 µM is 14%. The compound also came in with an EC50 in assay [3] of 30 nM.
For the compound `CN(C)C(=O)N1CCc2c(c(C(=O)NC3C4CC5CC(C4)CC3C5)nn2C2CCCCC2)C1` (stereo not drawn) [Cpd 132, 1-cyclohexyl-1,4,6,7-tetrahydro-pyrazolo[4,3-c]pyridine-3,5-dicarboxylic acid 3-adamantan-2-ylamide 5-dimethylamide], the half-inhibitory concentration (IC50) was 5500 nM in assay [1] (setting [5]) and 200 nM in assay [2] (human CB2, SK-N-MC cell membranes, calculated by linear regression from percent inhibition at various concentrations, read-out: Cannabinoid CB2 Receptor Binding IC50). Further, in assay [3], the “CB1 Receptor Functional Activity (change in functional activity, CRE β-gal)” value is on record as −42%.
Turning to `COC(=O)N1C/C(=C\c2ccc(F)cc2)c2c(c(C(=O)N[C@H](C)c3ccccc3)nn2-c2ccc(Cl)cc2Cl)C1` [Cpd 1, (7E)-1-(2,4-dichloro-phenyl)-7-(4-fluoro-benzylidene)-3-[(1R)-1-phenyl-ethyl-carbamoyl]-1,4,6,7-tetrahydro-pyrazolo[4,3-c]pyridine-5-carboxylic acid methyl ester], in assay [1], the IC50 is 3 nM. Besides, the inhibition at 0.2 µM in assay [2] turned out to be 26%. In assay [3], this compound returned a 50% effective concentration (EC50) of 1 nM.
In the same order, the values of `COc1ccc(/C=C2\CN(S(=O)(=O)N(C)C)Cc3c(C(=O)NN4CCCCC4)nn(-c4ccc(Cl)cc4Cl)c32)cc1` [Cpd 58, (7E)-1-(2,4-dichloro-phenyl)-5-dimethylsulfamoyl-7-(4-methoxy-benzylidene)-4,5,6,7-tetrahydro-1H-pyrazolo[4,3-c]pyridine-3-carboxylic acid piperidin-1-ylamide] are 20 nM, 53% and 3 nM.
In turn, `CC(NC(=O)c1nn(-c2ccc(Cl)cc2Cl)c2c1CN(C(=O)OC(C)(C)C)C/C2=C\c1ccc(F)cc1)c1ccccn1` (stereo not drawn) [Cpd 20, (7E)-1-(2,4-dichloro-phenyl)-7-(4-fluoro-benzylidene)-3-(1-pyridin-2-yl-ethylcarbamoyl)-1,4,6,7-tetrahydro-pyrazolo[4,3-c]pyridine-5-carboxylic acid tert-butyl ester] registered an IC50 in assay [1] of 40 nM. In addition, the inhibition at 0.2 µM in assay [2] is 14%. In assay [3], this compound came in with an EC50 of 20 nM.
